Reference: patent publication US10669310B2, “Peptide for cancer treatment and pharmaceutical composition containing same” (TOKUSHIMA UNIVERSITY, priority 2016, dated 2020)
pIC50: −log10 of the molar value. Read-outs that look alike come from different tables or passages of the source. *1 amine or outer side, *2 acyl side, *3 side chain or, on linkers, in order; H or OH if unused. Where a SMILES comes first, the peptide text is derived from it. Bridges are numbered along the chain shown (N, C = ends). [ ]: non-standard residue; d: D form. NH(CH2)4NH = C(CCN[*:2])CN[*:1]

Assays:
[1] = system: MCF-7 cells; type: cell-based, human; settings: for duration of significant cell growth inhibitory effects: 1 μM, E2-dependent growth of MCF-7
Protocol: (§1) Human breast cancer cell line MCF-7 and mammary epithelial cell line MCF-10A were purchased from American Type Culture Collection (ATCC, Manassas, Va., USA). Breast cancer cell line KPL-3C (J. Kurebayashi, et al., Br. J. Cancer 74, 200-207 (1996)) was kindly provided by Dr. Junichi Kurebayashi (Kawasaki Medical School). All cell lines were monolayer cultured in an appropriate medium supplemented with 10% FBS. The cells were maintained at 37° C. under humidified atmosphere containing 5% CO2.
(§2) In each experiment, the respective cells were seeded in a 48-well plate (2×10^4 cells/mL), a 6-well plate (3×10^5 cells/mL), or a 10-cm dish (2×10^6 cells/10 mL). MCF-7 cells were seeded in MEM (Thermo Fisher Scientific) supplemented with 10% FBS (Nichirei Biosciences Inc., Tokyo, Japan), 1% Antibiotic/Antimycotic solution (Thermo Fisher Scientific, Waltham, Mass., USA), 0.1 mM NEAA (Thermo Fisher Scientific), 1 mM sodium pyruvate (Thermo Fisher Scientific), and 10 μg/mL insulin (Sigma, St. Louis, Mo., USA). KPL-3C cells were seeded in RPMI (Thermo Fisher Scientific) supplemented with 10% FBS and 1% Antibiotic/Antimycotic solution. MCF-10A cells were seeded in MEBM (Lonza) supplemented with a Single Quots kit (BPE, hydrocortisone, hEGF, insulin, gentamycin/amphoterin-B) (Lonza, Walkersville, Md., USA) and 100 ng/mL cholera toxin. For 17β-estradiol (E2) (Sigma) stimulation, the media for MCF-7 and KPL-3C were changed to phenol red-free DMEM/F12 (Thermo Fisher Scientific) supplemented with 10% FBS, 1% Antibiotic/Antimycotic solution, 0.1 mM NEAA, 1 mM sodium pyruvate, and 10 μg/mL insulin on the day after seeding. Twenty-four hours later, the cells were treated with 10 nM E2 and a peptide (for example, 11R-ERAP or a stapled ERAP), or with 10 nM E2 alone.
When carrying out treatment with tamoxifen (Sigma) or fulvestrant (LKT laboratories, St. Paul, Minn., USA), cells were treated with 10 nM tamoxifen or 2 μM fulvestrant simultaneously with the above-mentioned treatment with E2 and a peptide or with E2 alone.
Cell growth assays on MCF-7, KPL-3C, and MCF-10A were carried out as described previously using a Cell Counting Kit-8 (CCK-8) (Dojindo, Kumamoto, Japan) (T. Yoshimaru, et al., Nat. Commun. 4, 2443 (2013)). The data are shown by mean±SE of three independent experiments.

[2] = target: T1, BIG3-PHB2 interaction (Homo sapiens, UniProt Q99623); experiment: Co-immunoprecipitation with anti-BIG3 antibody in MCF-7 cells; type: cell-based; settings: MCF-7, 1 μM, 24 hours after treatment
T1 construct: complex formation between the endogenous BIG3 and PHB2 in ERα-positive breast cancer cell line MCF-7; endogenous in cells; host or cells: MCF-7
T1 sequence (Q99623 2-299 limits assumed): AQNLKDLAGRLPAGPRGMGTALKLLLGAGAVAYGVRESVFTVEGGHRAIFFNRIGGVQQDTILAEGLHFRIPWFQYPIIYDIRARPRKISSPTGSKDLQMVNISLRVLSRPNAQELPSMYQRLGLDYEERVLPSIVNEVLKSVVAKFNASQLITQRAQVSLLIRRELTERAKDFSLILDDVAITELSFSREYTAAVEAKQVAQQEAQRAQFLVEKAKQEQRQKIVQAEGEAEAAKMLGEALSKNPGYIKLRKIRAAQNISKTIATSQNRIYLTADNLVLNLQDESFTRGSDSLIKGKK
Protocol: Immunoblot analyses were performed as described previously (T. Yoshimaru, et al., Nat. Commun. 4, 2443 (2013)). After performing SDS-PAGE, the membranes blotted with proteins were blocked with 4% BlockAce solution (Dainippon Pharmaceutical, Osaka, Japan) for three hours and then incubated with antibodies against the following proteins: BIG3 (1:1,000) (T. Yoshimaru, et al., Nat. Commun. 4, 2443 (2013)); PHB2 (1:1,000) (Abeam, Cambridge, UK); Akt, phosphorylated Akt (S473) (587F11, 1:1,000); p44/42 MAPK, phosphorylated p44/42 MAPK (T202/Y204) (1:1,000); α/β-tubulin (1:1,000) (Cell Signaling Technology, Danvers, Mass., USA); and LMNB1 (1:100) (Sigma). After incubation with an HRP-labeled secondary antibody (anti-mouse IgG-HRP, 1:5,000; anti-rat IgG-HRP; 1:5,000; or anti-rabbit IgG-HRP, 1:1,000) (Santa Cruz Biotechnology, Dallas, Tex., USA) for one hour, the blots were developed with an Enhanced Chemiluminescence (ECL) system (GE Healthcare, Buckinghamshire, UK) and scanned using an Image Reader LAS-3000 mini (Fujifilm, Tokyo, Japan). All the experiments were performed at least in triplicate.
Immunoprecipitation analysis was performed as described previously (T. Yoshimaru, et al., Nat. Commun. 4, 2443 (2013)). Cell lysates were pre-cleared with normal IgG and rec-Protein G Sepharose 4B (Thermo Fisher Scientific) at 4° C. for three hours. Then, the supernatants were incubated with 5 μg of an antibody against BIG3 or an antibody against PHB2 at 4° C. for twelve hours. Next, the antigen-antibody complexes were precipitated using rec-Protein G Sepharose 4B at 4° C. for one hour. The immunoprecipitated protein complexes were washed several times with a lysis buffer. Then, SDS-PAGE and immunoblot analyses were carried out as described above.

[3] = type: in vivo; settings: i.p. every day or every four days, 28 days
Protocol: KPL-3C cell suspensions (1×10^7 cells/mouse) were mixed with an equal volume of Matrigel (BD) and injected (200 μL in total) into the mammary fat pads of 6-week-old female BALB/c nude mice (Charles River Laboratories, Tokyo, Japan). The mice were housed in a pathogen-free isolation facility with a twelve-hour light/dark cycle and were fed solid rodent chow and water ad libitum. The tumors developed over several days and reached sizes of approximately 100 mm^3 [calculated as ½×(width×length^2)]. The mice were randomized into the following eleven treatment groups (five heads per group):
E2 was administered via application of a solution to the neck skin, and regarding the other treatments, administration was performed via intraperitoneal injection unless other administration methods are stated. The tumor volume was measured with calipers for 28 days, and then the mice were subjected to scheduled sacrifice to remove tumors. All the experiments were performed in accordance with the guidelines of the animal facility at Tokushima University.

[4] = In vitro blood-brain barrier permeability test; type: in vitro ADME
Protocol: BIG3 is expressed in the brain though expression is weak (Kim, J. W. et al., Cancer Sci. 100, 1468-1478 (2009)). Then, since there were concerns of side effects due to the transfer of stapled ERAP to the brain, blood-brain-barrier permeability test was carried out on stapled ERAP. Blood-brain-barrier permeability of stapled ERAP (No. 12) was examined by placing stapled ERAP (No. 12) to the inner side (vascular cavity side) of the insert of a blood-brain barrier permeability kit, and measuring the concentration of stapled ERAP (No. 12) that passed through a filter specialized for intracerebral transferability assay and leaked into the well (cerebral parenchyma side) of the plate in 30 minutes. The permeability coefficient (Papp) at this time was calculated (2 or less: very low permeability; 2 to 10: low permeability; 10 to 20: high permeability; and 20 or higher: very high permeability).

[5] = system: MCF-10A cells; experiment: Cell growth (MTT) assay, MCF-10A cells; type: cell-based, human; settings: normal mammary epithelial cells, ERα-negative and BIG3-negative
Protocol: as §1
as §2, with “For 17β-estradiol (E2) (Sigma) stimulation, the media for MCF-7 and KPL-3C were changed to phenol red-free DMEM/F12 (Thermo Fisher Scientific) supplemented with 10% FBS, 1% Antibiotic/Antimycotic solution, 0.1 mM NEAA, 1 mM sodium pyruvate, and 10 μg/mL insulin on the day after seeding. Twenty-four hours later, the cells were treated with 10 nM E2 and a peptide (for example, 11R-ERAP or a stapled ERAP), or with 10 nM E2 alone.” left out

Question: With CSCC[C@H](NC(=O)[C@@H](N)CCC(N)=O)C(=O)N[C@@H](CC(C)C)C(=O)N[C@@H](CO)C(=O)N[C@@H](CC(=O)O)C(=O)N[C@@H](CC(C)C)C(=O)N[C@H](C(=O)N[C@@H](CC(C)C)C(=O)N[C@@H](CCC(N)=O)C(=O)N[C@@H](CC(C)C)C(=O)N[C@@H](CCCNC(=N)N)C(=O)N[C@@H](CCCNC(=N)N)C(=O)N[C@@H](CCCNC(=N)N)C(=O)N[C@@H](CCCNC(=N)N)C(=O)N[C@@H](CCCNC(=N)N)C(=O)N[C@@H](CCCNC(=N)N)C(=O)N[C@@H](CCCNC(=N)N)C(=O)N[C@@H](CCCNC(=N)N)C(=O)O)[C@@H](C)O [QMLSDLTLQL-8R] (H-QMLSDLTLQLRRRRRRRR-OH; N-terminus and C-terminus assumed) as the molecule, how does the pIC50 [1] read?
Answer: 5.10

Question: With “QMLSDLTLQLRQR (PHB2-binding peptide derived from BIG3) [ERAP, reference compound]” as the molecule, how does the “effect on E2-dependent MCF-7 cell growth” value [1] read?
Answer: did not show effects

Question: What does the source list for CSCC[C@@H](NC(=O)[C@H]1CCC(=O)NCCCCNC(=O)CC[C@@H](NC(C)=O)C(=O)N[C@H](CC(C)C)C(=O)N[C@H](CC(=O)O)C(=O)N[C@H](CO)C(=O)N1)C(=O)N[C@H](CCC(N)=O)C(N)=O [shRI stapled ERAP No. 12] (Ac-[dE][dL][dD][dS][dE][dM][dQ]-NH2; linker 1-5 via NH(CH2)4NH; N-terminus and C-terminus assumed)?
Answer: inhibition of endogenous BIG3-PHB2 complex formation [2]: inhibited endogenous BIG3-PHB2 complex formation; duration of significant cell growth inhibitory effects [1]: seven; pIC50 ([1]; 96 h): 6.28

Question: For CSCC[C@H](NC(=O)[C@H](CCC(N)=O)NC(=O)CNC(=O)CNC(=O)CNC(=O)[C@H](CCCNC(=N)N)NC(=O)[C@H](CCCNC(=N)N)NC(=O)[C@H](CCCNC(=N)N)NC(=O)[C@H](CCCNC(=N)N)NC(=O)[C@H](CCCNC(=N)N)NC(=O)[C@H](CCCNC(=N)N)NC(=O)[C@H](CCCNC(=N)N)NC(=O)[C@H](CCCNC(=N)N)NC(=O)[C@H](CCCNC(=N)N)NC(=O)[C@H](CCCNC(=N)N)NC(=O)[C@@H](N)CCCNC(=N)N)C(=O)N[C@@H](CC(C)C)C(=O)N[C@@H](CO)C(=O)N[C@@H](CC(=O)O)C(=O)N[C@@H](CC(C)C)C(=O)N[C@H](C(=O)N[C@@H](CC(C)C)C(=O)N[C@@H](CCC(N)=O)C(=O)N[C@@H](CC(C)C)C(=O)N[C@@H](CCCNC(=N)N)C(=O)N[C@@H](CCC(N)=O)C(=O)N[C@@H](CCCNC(=N)N)C(=O)O)[C@@H](C)O [11R-ERAP, 11R-GGG-QMLSDLTLQLRQR, reference compound] (H-RRRRRRRRRRRGGGQMLSDLTLQLRQR-OH; N-terminus and C-terminus assumed), which “toxicity, body weight” value [3] is on record?
Answer: No toxicity or significant body weight decrease

Question: And the “inhibition rate of E2-dependent growth” value [1]?
Answer: 45%

Question: And the pIC50 ([1]; 96 h)?
Answer: 5.10

Question: With CSCC[C@H](NC(=O)[C@@H](N)CCC(N)=O)C(=O)N[C@@H](CC(C)C)C(=O)N[C@@H](CO)C(=O)N[C@@H](CC(=O)O)C(=O)N[C@@H](CC(C)C)C(=O)N[C@H](C(=O)N[C@@H](CC(C)C)C(=O)N[C@@H](CCC(N)=O)C(=O)N[C@@H](CC(C)C)C(=O)N[C@@H](CCCNC(=N)N)C(=O)N[C@@H](CCC(N)=O)C(=O)N[C@@H](CCCNC(=N)N)C(=O)N[C@@H](CCCNC(=N)N)C(=O)N[C@@H](CCCNC(=N)N)C(=O)N[C@@H](CCCNC(=N)N)C(=O)N[C@@H](CCCNC(=N)N)C(=O)N[C@@H](CCCNC(=N)N)C(=O)N[C@@H](CCCNC(=N)N)C(=O)N[C@@H](CCCNC(=N)N)C(=O)N[C@@H](CCCNC(=N)N)C(=O)O)[C@@H](C)O [QMLSDLTLQLRQR-8R] (H-QMLSDLTLQLRQRRRRRRRRR-OH; N-terminus and C-terminus assumed) as the molecule, how does the pIC50 [1] read?
Answer: 5.11

Question: Which results are given for CSCC[C@H](NC(=O)[C@H](CCC(N)=O)NC(C)=O)C(=O)N[C@H]1CCC(=O)NCCCCNC(=O)CC[C@@H](C(=O)N[C@@H](CC(C)C)C(=O)N[C@@H](CCC(N)=O)C(=O)N[C@@H](CC(C)C)C(=O)N[C@@H](CCCNC(=N)N)C(=O)N[C@@H](CCC(N)=O)C(=O)N[C@@H](CCCNC(=N)N)C(N)=O)NC(=O)[C@H](CC(C)C)NC(=O)[C@H](CC(=O)O)NC(=O)[C@H](CO)NC1=O [stapled ERAP No. 12]?
Answer: Papp at 30 min, 30 μM ([4]; 30 μM): 0.177 ×10⁻⁶ cm/s; Papp at 30 min ([4]; 30 minutes, 2 or less: very low permeability, read-out: blood-brain barrier permeability coefficient (Papp)): ≤ 2 ×10⁻⁶ cm/s; recovery at 30 minutes, 10 μM ([4]; not told, 10 μM, read-out: Recovery Rate): 0%; recovery at 30 minutes, 30 μM ([4]; not told, 30 μM, read-out: Recovery Rate): 0.01%; toxicity, body weight [3]: No toxicity or significant body weight decrease; pIC50 ([1]; 96 h): 6.23

Question: What does the source list for CSCC[C@@H](NC(=O)[C@@H](CCC(N)=O)NC(C)=O)C(=O)N[C@@H]1CCC(=O)NCCCCNC(=O)CC[C@H](C(=O)N[C@H](CC(C)C)C(=O)N[C@H](CCC(N)=O)C(=O)N[C@H](CC(C)C)C(=O)N[C@H](CCCNC(=N)N)C(=O)N[C@H](CCC(N)=O)C(=O)N[C@H](CCCNC(=N)N)C(N)=O)NC(=O)[C@@H](CC(C)C)NC(=O)[C@@H](CC(=O)O)NC(=O)[C@@H](CO)NC1=O [stapled-D-ERAP No. 12]?
Answer: effect on MCF-10A cell growth [5]: not inhibited; inhibition of endogenous BIG3-PHB2 complex formation [2]: inhibited endogenous BIG3-PHB2 complex formation; duration of significant cell growth inhibitory effects [1]: seven; pIC50 ([1]; 96 h): 6.36
